How the values were obtained:
Conditions in all cases: 0.1 µM; binder
[1] = target: PIK3CA(M1043I) (Homo sapiens, UniProt P42336, M1043I)
[2] = target: ROS1 (Homo sapiens, UniProt P08922)
[3] = target: RIOK1 (Homo sapiens, UniProt Q9BRS2)
[4] = target: TIE1 (Homo sapiens, UniProt P35590)
[5] = target: OSR1 (Homo sapiens, UniProt O95747)
[6] = target: GSK3B (Homo sapiens, UniProt P49841)
[7] = target: NEK11 (Homo sapiens, UniProt Q8NG66)
[8] = target: NEK1 (Homo sapiens, UniProt Q96PY6)
[9] = target: CAMK2B (Homo sapiens, UniProt Q13554)
[10] = target: DCAMKL3 (Homo sapiens, UniProt Q9C098)
Chain of DCAMKL3 (Q9C098 whole entry): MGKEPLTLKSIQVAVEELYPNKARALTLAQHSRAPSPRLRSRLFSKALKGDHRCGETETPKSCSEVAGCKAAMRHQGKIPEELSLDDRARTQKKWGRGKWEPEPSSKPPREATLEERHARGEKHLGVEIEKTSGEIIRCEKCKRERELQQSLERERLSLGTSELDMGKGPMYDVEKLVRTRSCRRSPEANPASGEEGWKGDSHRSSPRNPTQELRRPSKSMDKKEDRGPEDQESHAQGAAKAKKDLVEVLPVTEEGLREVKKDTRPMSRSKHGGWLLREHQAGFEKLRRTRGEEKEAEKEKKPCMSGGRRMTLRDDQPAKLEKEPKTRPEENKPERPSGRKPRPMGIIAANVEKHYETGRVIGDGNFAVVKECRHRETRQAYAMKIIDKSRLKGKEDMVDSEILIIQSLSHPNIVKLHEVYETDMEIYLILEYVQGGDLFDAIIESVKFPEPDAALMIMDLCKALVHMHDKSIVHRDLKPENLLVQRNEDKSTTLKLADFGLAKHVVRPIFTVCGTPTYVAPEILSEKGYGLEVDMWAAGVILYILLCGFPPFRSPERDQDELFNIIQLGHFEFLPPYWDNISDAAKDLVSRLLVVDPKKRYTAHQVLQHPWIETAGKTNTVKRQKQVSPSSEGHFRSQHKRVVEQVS

[11] = target: MLK1 (Homo sapiens, UniProt P80192)
[12] = target: FLT3(N841I) (Homo sapiens, UniProt P36888, N841I)
[13] = target: PRKR (Homo sapiens, UniProt P19525)
[14] = target: PAK2 (Homo sapiens, UniProt Q13177)
[15] = target: PIK3CA(I800L) (Homo sapiens, UniProt P42336, I800L)
Chain of PIK3CA(I800L) (P42336 whole entry I800L): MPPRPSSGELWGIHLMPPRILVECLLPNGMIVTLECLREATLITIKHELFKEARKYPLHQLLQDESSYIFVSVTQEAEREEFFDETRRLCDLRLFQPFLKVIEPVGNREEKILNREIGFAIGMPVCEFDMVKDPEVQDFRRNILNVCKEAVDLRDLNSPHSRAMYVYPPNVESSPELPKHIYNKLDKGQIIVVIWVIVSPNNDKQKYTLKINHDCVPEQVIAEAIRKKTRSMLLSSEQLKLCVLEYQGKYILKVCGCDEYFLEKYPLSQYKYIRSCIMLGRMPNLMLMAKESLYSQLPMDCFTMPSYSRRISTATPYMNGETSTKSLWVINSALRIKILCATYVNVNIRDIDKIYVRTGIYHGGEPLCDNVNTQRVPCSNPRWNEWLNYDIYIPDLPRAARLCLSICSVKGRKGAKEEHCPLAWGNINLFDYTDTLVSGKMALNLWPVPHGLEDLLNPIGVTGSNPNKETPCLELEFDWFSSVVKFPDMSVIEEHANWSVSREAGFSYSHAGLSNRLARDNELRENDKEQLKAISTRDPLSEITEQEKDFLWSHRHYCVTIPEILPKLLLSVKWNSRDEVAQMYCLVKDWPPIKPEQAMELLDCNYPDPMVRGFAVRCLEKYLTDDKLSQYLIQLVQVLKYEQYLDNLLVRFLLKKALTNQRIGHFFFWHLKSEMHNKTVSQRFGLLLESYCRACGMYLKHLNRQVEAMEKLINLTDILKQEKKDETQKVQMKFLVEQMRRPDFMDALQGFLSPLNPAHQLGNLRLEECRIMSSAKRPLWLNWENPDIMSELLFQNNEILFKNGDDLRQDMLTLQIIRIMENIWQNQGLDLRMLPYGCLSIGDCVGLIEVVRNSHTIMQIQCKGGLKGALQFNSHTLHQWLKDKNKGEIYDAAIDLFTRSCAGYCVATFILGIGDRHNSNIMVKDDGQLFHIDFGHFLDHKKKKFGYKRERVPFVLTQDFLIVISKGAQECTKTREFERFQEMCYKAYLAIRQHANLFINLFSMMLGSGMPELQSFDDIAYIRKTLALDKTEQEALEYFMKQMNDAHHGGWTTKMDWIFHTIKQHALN

[16] = target: ERK4 (Homo sapiens, UniProt P31152)
[17] = target: LRRK2 (Homo sapiens, UniProt Q5S007)
[18] = target: MAST1 (Homo sapiens, UniProt Q9Y2H9)
[19] = target: MET (Homo sapiens, UniProt P08581)
Chain of MET (P08581 whole entry): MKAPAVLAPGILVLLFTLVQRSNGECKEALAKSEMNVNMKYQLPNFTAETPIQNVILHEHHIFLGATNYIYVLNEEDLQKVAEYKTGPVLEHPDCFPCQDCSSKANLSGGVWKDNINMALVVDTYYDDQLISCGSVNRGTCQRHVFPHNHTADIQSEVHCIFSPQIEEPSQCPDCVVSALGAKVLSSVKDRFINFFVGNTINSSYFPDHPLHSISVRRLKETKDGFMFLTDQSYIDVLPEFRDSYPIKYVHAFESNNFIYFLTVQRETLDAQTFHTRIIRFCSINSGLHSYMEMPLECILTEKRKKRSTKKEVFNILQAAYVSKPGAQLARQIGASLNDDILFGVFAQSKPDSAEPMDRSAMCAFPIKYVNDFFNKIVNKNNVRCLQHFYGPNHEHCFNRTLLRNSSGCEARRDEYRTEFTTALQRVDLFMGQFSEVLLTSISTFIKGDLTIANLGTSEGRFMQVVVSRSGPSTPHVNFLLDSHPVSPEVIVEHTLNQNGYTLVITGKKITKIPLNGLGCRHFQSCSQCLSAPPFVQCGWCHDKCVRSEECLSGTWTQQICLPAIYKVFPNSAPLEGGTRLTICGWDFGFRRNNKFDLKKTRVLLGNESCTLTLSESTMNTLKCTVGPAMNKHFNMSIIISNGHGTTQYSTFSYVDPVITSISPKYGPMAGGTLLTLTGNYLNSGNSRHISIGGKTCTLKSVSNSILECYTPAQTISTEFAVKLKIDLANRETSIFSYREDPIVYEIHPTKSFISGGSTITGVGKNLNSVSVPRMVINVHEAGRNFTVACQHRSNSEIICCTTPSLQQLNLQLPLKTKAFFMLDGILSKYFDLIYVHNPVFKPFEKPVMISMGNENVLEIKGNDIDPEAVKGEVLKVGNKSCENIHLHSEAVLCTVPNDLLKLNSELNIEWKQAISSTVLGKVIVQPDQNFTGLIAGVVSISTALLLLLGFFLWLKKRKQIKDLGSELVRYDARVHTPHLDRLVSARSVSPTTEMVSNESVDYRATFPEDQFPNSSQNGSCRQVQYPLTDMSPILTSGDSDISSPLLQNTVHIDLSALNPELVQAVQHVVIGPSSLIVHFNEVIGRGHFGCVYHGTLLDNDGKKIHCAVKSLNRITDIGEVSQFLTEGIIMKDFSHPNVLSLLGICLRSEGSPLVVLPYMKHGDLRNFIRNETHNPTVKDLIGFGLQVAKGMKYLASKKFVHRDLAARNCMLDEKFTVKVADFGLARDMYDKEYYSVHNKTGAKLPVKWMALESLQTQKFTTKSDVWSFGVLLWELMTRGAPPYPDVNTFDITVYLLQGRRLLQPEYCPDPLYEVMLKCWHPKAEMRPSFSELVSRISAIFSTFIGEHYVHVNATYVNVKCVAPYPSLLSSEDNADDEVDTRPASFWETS

[20] = target: CDK7 (Homo sapiens, UniProt P50613)
[21] = target: LATS1 (Homo sapiens, UniProt O95835)
[22] = target: PIK3CA(E542K) (Homo sapiens, UniProt P42336, E542K)
Chain of PIK3CA(E542K) (P42336 whole entry E542K): as the sequence (P42336 whole entry I800L) above, with E542K, L800I counted along it

[23] = target: FGFR3(G697C) (Homo sapiens, UniProt P22607, G697C)
[24] = target: TRKC (Homo sapiens, UniProt Q16288)
Chain of TRKC (Q16288 whole entry): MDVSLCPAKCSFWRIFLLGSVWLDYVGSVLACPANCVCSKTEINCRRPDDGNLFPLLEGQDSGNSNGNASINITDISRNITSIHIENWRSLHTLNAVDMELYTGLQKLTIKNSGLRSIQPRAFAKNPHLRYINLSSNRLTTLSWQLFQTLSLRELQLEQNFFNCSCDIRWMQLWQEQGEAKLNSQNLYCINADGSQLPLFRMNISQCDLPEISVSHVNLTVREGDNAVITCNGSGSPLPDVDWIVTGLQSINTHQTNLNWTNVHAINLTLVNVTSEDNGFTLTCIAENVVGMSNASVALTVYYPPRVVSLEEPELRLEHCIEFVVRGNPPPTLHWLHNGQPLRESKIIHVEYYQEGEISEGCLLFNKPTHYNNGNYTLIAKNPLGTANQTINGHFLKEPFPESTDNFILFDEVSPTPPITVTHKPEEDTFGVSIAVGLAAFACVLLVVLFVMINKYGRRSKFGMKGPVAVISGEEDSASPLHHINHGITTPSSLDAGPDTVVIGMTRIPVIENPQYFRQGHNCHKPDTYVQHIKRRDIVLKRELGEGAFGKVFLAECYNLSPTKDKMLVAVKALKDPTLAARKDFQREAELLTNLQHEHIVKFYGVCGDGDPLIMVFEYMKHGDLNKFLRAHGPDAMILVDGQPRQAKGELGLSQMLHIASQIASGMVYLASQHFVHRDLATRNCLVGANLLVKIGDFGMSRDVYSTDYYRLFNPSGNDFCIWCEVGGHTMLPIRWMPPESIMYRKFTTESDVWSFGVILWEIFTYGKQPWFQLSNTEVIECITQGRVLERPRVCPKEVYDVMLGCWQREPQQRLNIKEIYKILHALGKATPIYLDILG

[25] = target: RET(V804L) (Homo sapiens, UniProt P07949, V804L)
[26] = target: CAMK2A (Homo sapiens, UniProt Q9UQM7)
[27] = target: PCTK3 (Homo sapiens, UniProt Q07002)
[28] = target: PFTK1 (Homo sapiens, UniProt O94921)
[29] = target: ADCK4 (Homo sapiens, UniProt Q96D53)
[30] = target: SGK2 (Homo sapiens, UniProt Q9HBY8)
Chain of SGK2 (Q9HBY8 whole entry): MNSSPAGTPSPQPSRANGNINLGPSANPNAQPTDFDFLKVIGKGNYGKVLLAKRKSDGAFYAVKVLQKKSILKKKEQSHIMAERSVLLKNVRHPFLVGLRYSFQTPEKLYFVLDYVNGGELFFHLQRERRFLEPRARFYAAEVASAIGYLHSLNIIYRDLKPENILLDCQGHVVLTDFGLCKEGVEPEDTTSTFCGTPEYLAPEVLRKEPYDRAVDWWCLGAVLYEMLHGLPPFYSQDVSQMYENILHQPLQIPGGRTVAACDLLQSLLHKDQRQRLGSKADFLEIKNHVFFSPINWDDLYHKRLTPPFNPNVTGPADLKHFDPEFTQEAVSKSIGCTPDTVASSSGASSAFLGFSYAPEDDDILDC

[31] = target: PRKD3 (Homo sapiens, UniProt O94806)

Chain of NEK11 (Q8NG66 whole entry): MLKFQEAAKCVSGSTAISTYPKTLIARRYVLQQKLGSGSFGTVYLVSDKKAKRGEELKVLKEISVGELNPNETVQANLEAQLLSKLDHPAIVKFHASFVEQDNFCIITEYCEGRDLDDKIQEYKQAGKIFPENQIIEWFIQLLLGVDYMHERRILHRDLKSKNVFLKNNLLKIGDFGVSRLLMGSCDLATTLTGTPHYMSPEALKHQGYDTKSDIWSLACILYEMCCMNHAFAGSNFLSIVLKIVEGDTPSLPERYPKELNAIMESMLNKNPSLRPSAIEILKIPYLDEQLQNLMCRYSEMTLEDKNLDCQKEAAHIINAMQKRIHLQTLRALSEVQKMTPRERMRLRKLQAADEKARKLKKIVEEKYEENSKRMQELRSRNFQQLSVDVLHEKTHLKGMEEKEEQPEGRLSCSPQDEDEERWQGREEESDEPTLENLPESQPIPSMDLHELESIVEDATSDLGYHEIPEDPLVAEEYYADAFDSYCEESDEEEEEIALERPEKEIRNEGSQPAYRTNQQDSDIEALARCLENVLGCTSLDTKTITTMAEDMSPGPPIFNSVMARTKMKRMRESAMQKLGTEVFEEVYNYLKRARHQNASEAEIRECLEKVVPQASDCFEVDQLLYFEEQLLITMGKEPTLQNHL
Chain of PIK3CA(M1043I) (P42336 whole entry M1043I): as the sequence (P42336 whole entry I800L) above, with L800I, M1043I counted along it

CNc1ncc2cc(-c3ccc(-c4cccc(C)n4)cc3Cl)c(=O)n(C[C@H]3OC[C@H](N)CO3)c2n1 [compound 6, G-5555]
Percent Control [1]: 76% | Percent Control [2]: 100% | Percent Control [3]: 100% | Percent Control [4]: 100% | Percent Control [5]: 99% | Percent Control [6]: 97% | Percent Control [7]: 100% | Percent Control [8]: 100% | Percent Control [9]: 100% | Percent Control [10]: 29% | Percent Control [11]: 100% | Percent Control [12]: 100% | Percent Control [13]: 100% | Percent Control [14]: 13% | Percent Control [15]: 87% | Percent Control [16]: 100% | Percent Control [17]: 83% | Percent Control [18]: 47% | Percent Control [19]: 89% | Percent Control [20]: 100% | Percent Control [21]: 57% | Percent Control [22]: 89% | Percent Control [23]: 99% | Percent Control [24]: 84% | Percent Control [25]: 94% | Percent Control [26]: 79% | Percent Control [27]: 100% | Percent Control [28]: 100% | Percent Control [29]: 99% | Percent Control [30]: 100% | Percent Control [31]: 95%

— article doi:10.1101/2021.04.08.439011v1 (biorxiv, 2021)
